Where a name gives a salt, the structure may show the parent alone. Read-outs that look alike come from different tables or passages of the source.
Tests used:
α-receptors = assay: Antiadrenergic properties: anti-α effect (reduction of epinephrine-increased blood-pressure); type: in vivo, dog; settings: intravenous; for Anti-α effect: anaesthetized atropinized dog, epinephrine
Protocol: (§1) The purpose of this test was to determine the capacity of the compounds under study to reduce epinephrine-increased blood-pressure (anti-α effect) and epinephrine-accelerated heart-rate (anti-β effect) in the dog previously anaesthetized with pentobarbital (30 mg/kg) and atropinized (1 mg/kg).
After that, the dose of epinephrine so determined was administered followed by a dose, by intravenous route, of the compound to be studied. The percentage of reduction of hypertension produced by the compound under study in comparison with the hypertension previously obtained (about 100 mm.Hg) was then registered.
(§2) In both cases, the results were expressed as follows: […]
(§3) + for a <50%-reduction of the increase in pressure or cardiac frequency
(§4) ++ for a ≥50-reduction of the increase in pressure or cardiac frequency
(§5) +++ for the almost complete supression of the increase in pressure or cardiac frequency.

β-receptors = assay: Antiadrenergic properties: anti-β effect (reduction of epinephrine-accelerated heart-rate); type: in vivo; settings: intravenous, anaesthetized atropinized dog
Protocol: as §1
The percentage of reduction of the epinephrine-induced acceleration of heart-rate obtained by means of the compounds under study in comparison with the tachycardia previously measured (about 70 beats) was then registered.
as §2, §3, §4, §5

mice = assay: Central depressant properties (passage of mice through a light ray); type: in vivo; settings: intragastric, 30 minutes after administration, recorded over 15 minutes, dose with depressant action in 50% of the animals; for ED50: Mus musculus, po, 0.5 h, read-out: AD50 (the source's name)
Protocol: D. Central depressant properties
Thirty minutes after the intragastric administration of a dose of the compound to be studied, batches of mice were placed in a container through which a ray of light was projected. By means of a photoelectric cell, a record was made of the number of animals passing through the light ray over a period of 15 minutes. The same test was performed with control animals.
The AD50 was then calculated i.e. the dose of the compound under study which provoked a depressant action in 50% of the animals.

anaesthetized dog [1] = assay: Hypotension in the anaesthetized dog; type: in vivo; settings: intravenous
Protocol: (a) Hypotension in the anaesthetized dog
The hypotensive effect was determined for at least one hour after the intravenous injection of a dose of the compound under study in the dog previously anaesthetized with pentobarbital (30 mg/kg) and atropinized (1 mg/kg).
Arterial pression was registered on a femoral artery.
The results were expressed as follows: […]
++ for a lasting reduction of about 30% in arterial pressure
+ for a short-lived reduction of about 20% in arterial pressure.

anaesthetized dog [2] = assay: Reserpine-like properties (cardiac frequency and contractility of the myocardium); type: in vivo; settings: Canis lupus familiaris, 1 mg/kg, intravenous, anaesthetized dog
Excerpt: C. Reserpine-like properties
the increase in cardiac frequency
the increase of (dP/dt) at its maximum, i.e. the increase of the maximum of the derivative of the left ventricular pressure in relation to time.
This derivative thus represented an index of contractility.

[3] = (dP/dt) maximum, read-out: increase in the contractility of the myocardium
[4] = read-out: increase in cardiac frequency

For “4,5-Dihydroxymethyl-3-(2-hydroxy-3-phenoxyethylamino-propoxy)-2-methyl-pyridine [C]”, the Anti-α effect (α-receptors; 10 mg/kg) was “+++” and the Anti-β effect (β-receptors; 10 mg/kg) was “+ (for a <50%-reduction of the increase in pressure or cardiac frequency)”.
With “4,5-Dihydroxymethyl-3-[2-hydroxy-3-(2-methoxy-phenoxyethylamino)-propoxy]-2-methyl-pyridine” the Anti-α effect (α-receptors; 10 mg/kg) was “++ (for a ≥50-reduction of the increase in pressure or cardiac frequency)”, the Anti-β effect (β-receptors; 10 mg/kg) was “+ (for a <50%-reduction of the increase in pressure or cardiac frequency)” and the AD50 (mice) was 33 mg/kg.
“4,5-Dihydroxymethyl-3-[2-hydroxy-3-(2-phenoxy-2-methyl-ethylamino)-propoxy]-2-methyl-pyridine [J]” was tested, and the Anti-α effect (α-receptors; 10 mg/kg) was “+++” and the AD50 (mice) was 47 mg/kg.
For “4,5-Dihydroxymethyl-3-[2-hydroxy-3-(2-phenyl-1-methyl-ethylamino)-propoxy]- 2-methyl-pyridine [B]”, the Anti-α effect (α-receptors; 3.5 mg/kg) was “+++”, the Anti-β effect (β-receptors; 3.5 mg/kg) was “+++” and the “Decrease in arterial pressure” value (anaesthetized dog [1]; 3.5 mg/kg) was “+ (for a short-lived reduction of about 20% in arterial pressure)”.
“4,5-Dihydroxymethyl-3-[2-hydroxy-3-(3,5-dimethyl-phenoxyethylamino)-propoxy]-2-methyl-pyridine” was tested, and the Anti-α effect (α-receptors; 10 mg/kg) was “++ (for a ≥50-reduction of the increase in pressure or cardiac frequency)” and the Anti-β effect (β-receptors; 10 mg/kg) was “++ (for a ≥50-reduction of the increase in pressure or cardiac frequency)”.
With “4,5-Dihydroxymethyl-3-[2-hydroxy-3-(3-methyl-phenoxyethylamino)-propoxy]-2- methyl-pyridine” the Anti-α effect (α-receptors; 7.5 mg/kg) was “+++”, the Anti-β effect (β-receptors; 7.5 mg/kg) was “+ (for a <50%-reduction of the increase in pressure or cardiac frequency)” and the “Decrease in arterial pressure” value (anaesthetized dog [1]; 10 mg/kg) was “+ (for a short-lived reduction of about 20% in arterial pressure)”.
In the case of “4,5-Dihydroxymethyl-3-[3-(2,6-dimethyl-phenoxyethylamino)-2-hydroxy-propoxy]-2-methyl-pyridine [G]”, the Anti-α effect (α-receptors; 2 mg/kg) is reported as “+++”, the Anti-β effect (β-receptors; 2 mg/kg) is reported as “+ (for a <50%-reduction of the increase in pressure or cardiac frequency)” and the “Decrease in arterial pressure” value (anaesthetized dog [1]; 2 mg/kg) is reported as “++ (for a lasting reduction of about 30% in arterial pressure)”.
With “4,5-Dihydroxymethyl-3-[3-(2-ethyl-phenoxyethylamino)-2-hydroxy-propoxy]-2-methyl-pyridine [F]” the Anti-α effect (α-receptors; 10 mg/kg) was “+++”, the Anti-β effect (β-receptors; 10 mg/kg) was “++ (for a ≥50-reduction of the increase in pressure or cardiac frequency)” and the “Decrease in arterial pressure” value (anaesthetized dog [1]; 10 mg/kg) was “+ (for a short-lived reduction of about 20% in arterial pressure)”.
With “4,5-Dihydroxymethyl-3-{2-hydroxy-3-[(3-phenyl-1-methyl-1-propyl)-amino]-propoxy}-2-methyl-pyridine” the Anti-α effect (α-receptors; 10 mg/kg) was “+++” and the Anti-β effect (β-receptors; 10 mg/kg) was “++ (for a ≥50-reduction of the increase in pressure or cardiac frequency)”.
For Cc1ccc(OCCNCC(O)COc2c(C)ncc(CO)c2CO)cc1 (stereo not drawn) [Compound M, 4,5-Dihydroxymethyl-3-[2-hydroxy-3-(4-methyl-phenoxyethylamino)-propoxy]-2-methyl-pyridine], the Anti-α effect (α-receptors; 10 mg/kg) was “++ (for a ≥50-reduction of the increase in pressure or cardiac frequency)”, the Anti-β effect (β-receptors; 10 mg/kg) was 0 and the change in vivo at 1 mg/kg (anaesthetized dog [2]; [3]) was 10 to 30%. For the same molecule, the change in vivo at 1 mg/kg (anaesthetized dog [2]; [4]) was 10 to 30%.
COc1ccccc1OCCNCC(O)COc1c(C)ncc(CO)c1CO (stereo not drawn) [Compound U, 4,5-dihydroxymethyl-3-[2-hydroxy-3-(2-methoxy-phenoxyethylamino)-propoxy]-2-methyl-pyridine] was tested, and the Anti-α effect (α-receptors; 10 mg/kg) was “+++”, the “prolonged α-antiadrenergic activity at a dose as low as” value (α-receptors; lowest active dose, dog, dihydrochloride) was 0.5 mg/kg and the Anti-β effect (β-receptors; 10 mg/kg) was “++ (for a ≥50-reduction of the increase in pressure or cardiac frequency)”.
With Cc1ccc(C(C)C)c(OCCNCC(O)COc2c(C)ncc(CO)c2CO)c1 (stereo not drawn) [L, 4,5-Dihydroxymethyl-3-[2-hydroxy-3-(2-isopropyl-5-methyl-phenoxyethylamino)-propoxy]-2-methyl-pyridine] the Anti-α effect (α-receptors; 10 mg/kg) was “+++”, the Anti-β effect (β-receptors; 10 mg/kg) was “++ (for a ≥50-reduction of the increase in pressure or cardiac frequency)” and the change in vivo at 1 mg/kg (anaesthetized dog [2]; [3]) was 10 to 30%. The change in vivo at 1 mg/kg (anaesthetized dog [2]; [4]) was 10 to 30% and the ED50 (mice) was 40 mg/kg.
CCCc1ccccc1OCCNCC(O)COc1c(C)ncc(CO)c1CO (stereo not drawn) [N, 4,5-Dihydroxymethyl-3-[2-hydroxy-3-(2-n-propyl-phenoxyethylamino)-propoxy]-2-methyl-pyridine] was tested, and the Anti-α effect (α-receptors; 7 mg/kg) was “+++”, the Anti-β effect (β-receptors; 7 mg/kg) was “++ (for a ≥50-reduction of the increase in pressure or cardiac frequency)” and the ED50 (mice) was 42 mg/kg.
Cc1ncc(CO)c(CO)c1OCC(O)CNCCOc1ccccc1C(C)C (stereo not drawn) [P, 4,5-Dihydroxymethyl-3-[2-hydroxy-3-(2-isopropyl-phenoxyethylamino)-propoxy]-2-methyl-pyridine] was tested, and the Anti-α effect (α-receptors; 2 mg/kg) was “+++”, the Anti-β effect (β-receptors; 2 mg/kg) was “++ (for a ≥50-reduction of the increase in pressure or cardiac frequency)” and the change in vivo at 1 mg/kg (anaesthetized dog [2]; [3]) was 10 to 30%. It also gave a change in vivo at 1 mg/kg (anaesthetized dog [2]; [4]) of 10 to 30% and an ED50 (mice) of 42 mg/kg.
For CNC(=O)OCc1cnc(C)c(OCC(O)CNCCOc2ccccc2C)c1COC(=O)NC (stereo not drawn) [Q, 4,5-Di-(N-methylcarbamoyloxymethyl)-3-[2-hydroxy-3-(2-methyl-phenoxyethylamino)-propoxy]-2-methyl-pyridine], the Anti-α effect (α-receptors; 10 mg/kg) was “+++” and the Anti-β effect (β-receptors; 10 mg/kg) was 0.
CNC(=O)OCc1cnc(C)c(OCC(O)CNCCOc2ccccc2)c1COC(=O)NC (stereo not drawn) [R, 4,5-Di-(N-methylcarbamoyloxymethyl)-3-(2-hydroxy-3-phenoxyethylamino-propoxy)-2-methyl-pyridine] was tested, and the Anti-α effect (α-receptors; 10 mg/kg) was “++ (for a ≥50-reduction of the increase in pressure or cardiac frequency)” and the Anti-β effect (β-receptors; 10 mg/kg) was 0.
Cc1ncc(CO)c(CO)c1OCC(O)CNCCOc1ccccc1C(C)C (stereo not drawn) [S, 4,5-Dihydroxymethyl-3-[2-hydroxy-3-(2-isopropyl-phenoxyethylamino)-propoxy]-2-methyl-pyridine] was tested, and the Anti-α effect (α-receptors; 10 mg/kg) was “+++” and the Anti-β effect (β-receptors; 10 mg/kg) was “++ (for a ≥50-reduction of the increase in pressure or cardiac frequency)”.
For Cc1ccc(OCCCNCC(O)COc2c(C)ncc(CO)c2CO)cc1C (stereo not drawn) [T, 4,5-Dihydroxymethyl-3-[2-hydroxy-3-(3,4-dimethyl-phenoxypropylamino)-propoxy]-2-methyl-pyridine], the Anti-α effect (α-receptors; 10 mg/kg) was “++ (for a ≥50-reduction of the increase in pressure or cardiac frequency)” and the Anti-β effect (β-receptors; 10 mg/kg) was “++ (for a ≥50-reduction of the increase in pressure or cardiac frequency)”.
For Cc1ncc(CO)c(CO)c1OCC(O)CNCCOc1ccc(Cl)cc1 (stereo not drawn) [W, 4,5-Dihydroxymethyl-3-[2-hydroxy-3-(4-chloro-phenoxyethylamino)-propoxy]-2-methyl-pyridine], the Anti-α effect (α-receptors; 10 mg/kg) was “++ (for a ≥50-reduction of the increase in pressure or cardiac frequency)” and the Anti-β effect (β-receptors; 10 mg/kg) was “+ (for a <50%-reduction of the increase in pressure or cardiac frequency)”.
With COc1ccc(CCNCC(O)COc2c(C)ncc(CO)c2CO)cc1OC.O=C(O)C(=O)O.O=C(O)C(=O)O (stereo not drawn) [X, 4,5-Dihydroxymethyl-3-[3-(3,4-dimethoxy-phenethylamino)-2-hydroxy-propoxy]-2-methyl-pyridine dioxalate] the “Decrease in arterial pressure” value (anaesthetized dog [1]; 10 mg/kg) was “+ (for a short-lived reduction of about 20% in arterial pressure)”.
With Cc1ncc(CO)c(CO)c1OCC(O)CNCCc1ccccc1 (stereo not drawn) [Z, 4,5-Dihydroxymethyl-3-(2-hydroxy-3-phenylethyl-amino-propoxy)-2-methyl-pyridine oxalate] the change in vivo at 1 mg/kg (anaesthetized dog [2]; [3]) was 10 to 30%, the change in vivo at 1 mg/kg (anaesthetized dog [2]; [4]) was 10 to 30% and the ED50 (mice) was 33 mg/kg.
